Measurements: paper PMC6690791 (Bioorganic & medicinal chemistry letters, 2019)
Where two headings read alike, the source gives them in different places.

Experiments:
Format in all cases: biochemical
[1] = molecular target: HCV genotype 1b NS3/4A protease (Hepatitis C virus genotype 1b, UniProt P26663); test: fluorescence-based enzymatic assay, genotype 1b NS3/4A
R155K NS3/4A genotype 1b = R155K NS3/4A genotype 1b (Hepatitis C virus genotype 1b, UniProt P26663, R1181K); test: enzymatic inhibition assay, drug-resistant mutant R155K of genotype 1b
[2] = molecular target: HCV genotype 3a NS3/4A protease (Hepatitis C virus genotype 3a, UniProt Q81258); test: enzymatic inhibition assay, genotype 3a NS3/4A
A156S NS3/4A genotype 1b = A156S NS3/4A genotype 1b (Hepatitis C virus genotype 1b, UniProt P26663, A1182S); test: enzymatic inhibition assay, drug-resistant mutant A156S of genotype 1b
V36M NS3/4A genotype 1b = V36M NS3/4A genotype 1b (Hepatitis C virus genotype 1b, UniProt P26663, V1062M); test: enzymatic inhibition assay, drug-resistant mutant V36M of genotype 1b

SMILES	IC50 [1]	inhibitory activity (IC50) (R155K NS3/4A genotype 1b)	other results
Cc1ccc(S(=O)(=O)Nc2ccccc2C(=O)Nc2nc3ccc4ccccc4c3s2)cc1 [F0325–0092]	2 to 5 µM		
CSc1cccc2sc(NC(=O)c3ccccc3NS(=O)(=O)c3ccc(C)cc3)nc12 [F2730–0247]	10 to 100 µM		
Cc1ccc(S(=O)(=O)Nc2ccccc2C(=O)Nc2nc3c(C)cc(C)cc3s2)cc1 [F0325–0086]	2 to 5 µM		
Cc1ccc(S(=O)(=O)Nc2ccccc2C(=O)Nc2nc3c(cc4c5c(cccc53)CC4)s2)cc1 [F0816–0111]	2 to 5 µM	did not retain activity	
Cc1ccc(S(=O)(=O)Nc2ccccc2C(=O)Nc2nc3c(ccc4ccccc43)s2)cc1 [F0325–0093]	5 to 10 µM		
Cc1ccc(S(=O)(=O)Nc2ccccc2C(=O)Nc2nc3c(C)ccc(Cl)c3s2)cc1 [F1813–0711]	5 to 10 µM	did not retain activity	
CSc1cccc(NC(=O)Cc2csc(NS(=O)(=O)c3ccccc3)n2)c1 [F2322–0904]	5 to 10 µM		
Cc1ccc(S(=O)(=O)Nc2ccccc2C(=O)Nc2nc3ccc4sc(C)nc4c3s2)cc1 [F0725–0019]	2 to 5 µM		
Cc1c(Cl)cccc1NC(=O)Cc1csc(NS(=O)(=O)c2ccccc2)n1 [F2322–0877]	5 to 10 µM		
Cc1ccc(S(=O)(=O)Nc2ccccc2C(=O)Nc2nc(-c3cc(Cl)ccc3Cl)cs2)cc1 [F0325–0125]	< 2 µM	did not retain activity	
Cc1cc(NC(=O)Cc2csc(NS(=O)(=O)c3ccccc3)n2)ccc1Br [F2322–0885]			IC50 ([2]; genotype 3a NS3/4A): did not have any effect
Cc1ccc(S(=O)(=O)Nc2ccccc2C(=O)Nc2nc3c(Cl)ccc(Cl)c3s2)cc1 [F1813–0710]	< 2 µM	maintains its activities	IC50 [2]: 14 µM; inhibitory activity (IC50) (A156S NS3/4A genotype 1b): maintains its activities; inhibitory activity (IC50) (V36M NS3/4A genotype 1b): maintains its activities
Cc1ccc(S(=O)(=O)Nc2ccccc2C(=O)Nc2nc3c(Br)cccc3s2)cc1 [F1822–0567]	10 to 100 µM		
